Results on 1 molecule are retold here after patent US20030228256A1, “Methods of achieving transplantation tolerance through radioablation of hemolymphopoietic cell populations” (priority 2002, published 2003).

In data set [1] the test system is white blood cell counts (WBC), hemolymphopoietic elements. Kind of data set: Blood counts (WBC, RBC, Hb, PLT) after single IV dose of 153Sm-EDTMP. It is filed as in vivo, C57BL/6 mice. More on the design: time at which myelodepression occurred: unit not given here. As to the method: (§1) Bone marrow-derived Cell Transplantation. Balb/c mice, 8-9 weeks old, used as donors, were sacrificed on the day of the transplant. Bone marrow cells (BMC) were prepared according to a previously published regimen. Briefly, after removing femura and tibiae, and cleaning them from muscle tissue and cartilage, BMC were flushed with sterile RPMI-1640 (Mediatech, Inc, Herndon, Va.) supplemented with 0.8 mg/ml Gentamycin (Gibco, Gaithersburg, Md.), using 23G needle. BMC were filtered through a sterile nylon mesh and counted. Fully MCH-mismatched C57BL/6 recipients, 9-10 weeks of age, were injected intravenously with either 20×10^6 or 100×10^6 unmanipulated BMCs resuspended in 0.5 and 1.0 ml of HBSS Hank's Balanced Saline Solution) (Mediatech) respectively, on either day 7 or 14. Tolerance induction protocol consisted of either 150 or 500 μCi of ^153Sm-EDTMP (Berlex Laboratories Wayne, N.J.), I.V., on day—7, and 0.5 mg hamster anti-murine CD154 mAb (MR-1), purchased from Taconic (Germantown, N.Y.) administered intraperitoneally (I.P.) on days—1,0,7,14, 21 and 28.
Recipient animals (C57BL/6, H-2^b) were treated with a single IV dose of ^153Sm-EDTMP, 150 μCi or 500 μCi, prior to administration of 20×10^6 or 100×10^6 allogenic donor bone marrow cells (BMC) (BALB/c, H-2^d), also administered as a single IV dose. BMC transplantation (BMC-Tx) was performed on day 7 or 14 following the administration of ^153Sm in the presence of transient T lymphocyte co-stimulatory blockade by MR-1 (hamster anti-murine CD154 mAb) on days—1, 0, 7, 14, 21 and 28, 0.5 mg IP. […] Similar data were obtained in animals treated with ^153Sm-EDTMP and not transplanted with allogeneic BMC (not shown). […] No dramatic alterations of RBC, PLT or Hb counts were evident.

The test system of data set [2] is donor-derived cells (BALB/c BMC) in recipients. Kind of data set: Hemolymphopoietic chimerism: percentage of donor-derived cells in recipient PBL by flow cytometry after allogeneic BMC-Tx. It is filed as in vivo, C57BL/6 mice. As to the method: as §1
Immunohemotyping of chimeras. Engraftment of donor-derived BMCs was ascertained by flow cytometric analysis (FCM) of recipient peripheral blood mononuclear cells (PBMCs), splenocytes, thymocytes and bone marrow cells after staining with FITC-conjugated anti-mouse H-2K^b or H-2K^d and Cy-Chrome-conjugated CD3 monoclonal antibodies (mAbs) purchased from PharMingen (San Diego, Calif.) at multiple time points during the experiment as well as at sacrifice. Cells were also assessed for non-specific staining using an Ig isotype control (FITC-conjugated mouse IgG2a and Cy-Chrome-conjugated rat IgG2b), and the percentage of cells stained with this Ab was subtracted from the values obtained from staining with the specific Ab to determine the relative number of positive cells. Reconstitution of various cell lineages was assessed using FITC-conjugated anti-mouse H-2K^b or H-2K^d and PE-conjugated anti-mouse CD19/CD22 in the B cell, PE-conjugated anti-mouse Ly-6G in the granulocyte, and PE-conjugated anti-mouse Mac-3 in the macrophage compartments. Recipient animals were first tested 1 week after BMC-Tx, every 2 weeks up to 6 weeks, and every 4 weeks thereafter. Purified anti-mouse CD16/CD32 (FcγIII/II) was used to block non-specific binding to the Fc receptors. FCM analyses were preformed using CellQuest software on a FACScan cytometer purchased from Becton Dickinson & Co. (Mountain View, Calif.).
Typing of PBL obtained from the recipient animals starting at 2 weeks following the reconstitution with donor-derived BM allogeneic cells, every two weeks up to 6 weeks post-reconstitution, and every 4 weeks afterwards was performed using anti Class I H-2^b-FITC and H-2^d-FITC. Analysis was performed on the lymphoid gate, and the values were normalized to 100%.
For orientation: In flow cytometry, cells or beads pass a laser one at a time.

Data set [3] relates to donor-specific (Balb/c) and third party (C3H) skin grafts.
Experimental: Full-thickness skin donor (Balb/c) and third party (C3H/HeJ) grafts were transplanted onto the lateral thoracic area of the recipients either the day following BMC-Tx, or 4 weeks following the last administration of MR-1 mAb, using techniques described previously. Briefly, square, full-thickness skin grafts (1 cm^2) were prepared from the tail skin of donors. Graft beds were prepared on the right (donor-specific) and left (third party) lateral thoracic wall of recipient mice. Grafts were fixed to the beds with 4 sutures of 5.0 silk at the corners of the graft and covered with a petroleum jelly-coated gauze and a plaster cast. The grafts were first inspected on the eighth-day following grafting, and every third day thereafter. Graft rejection was considered complete when no viable graft tissue was detected by visual inspection. Recipient mice were considered to be tolerant when donor-specific skin grafts survived in perfect condition for <150 days.
Grafts were prepared 30 days following the last administration of anti-CD154 mAb in the treated animals. Two different donor strain combinations, BALB/c (H-2^d), and C3H/J (H-2^k) were used. Each recipient received skin grafts from both strains: donor-type, BALB/c (H-2^d), as well as third-party, C3H/J (H-2^k). […] Grafts were followed for a minimum of 128 days and were considered rejected when viable tissue was no longer detected at the transplant site.

Structures are written as SMILES. Read-outs that look alike come from different tables or passages of the source.

With `O=P([O-])(O)CN(CCN(CP(=O)([O-])O)CP(=O)(O)O)CP(=O)([O-])O.[153Sm+3]` [^153Sm-EDTMP], the “reversibility of myelodepression of the WBC compartment” value in data set [1] (in the presence or absence of allogeneic BMC-Tx) was “spontaneously reversible”. For the same molecule, the “effect on red blood cell (RBC), hemoglobin (Hb) and platelet (PLT) counts” value in data set [1] (single IV dose 150 or 500 μCi) is “does not have significant effect”. The “time at which myelodepression occurred” value in data set [1] (single IV dose 150 or 500 μCi) was “one”. Also, the “time by which myelodepression spontaneously resolved” value in data set [1] (single IV dose 150 or 500 μCi) was 4-6 weeks post-administration. Further, the “myelodepression (decreased white blood cell counts)” value in data set [1] (single IV dose 150 or 500 μCi, FIG. 1) is “transient myelodepression”. The “CD3+ T lymphocytes of donor origin (mixed chimerism of lymphoid lineage)” value was “CD3+ T lymphocytes of donor origin were also present” in data set [2] (20×10^6 BMC, anti-CD154 mAb, 153Sm-EDTMP 150 or 500 μCi) and “CD3+ T lymphocytes of donor origin were also present” in data set [2] (100×10^6 BMC, anti-CD154 mAb, 153Sm-EDTMP 150 or 500 μCi). The “chimerism levels with versus without 153Sm administration” value in data set [2] (100×10^6 BMC, anti-CD154 mAb) is listed as “reproducibly higher”. Moreover, in data set [2] (100×10^6 BMC, anti-CD154 mAb, 153Sm-EDTMP 150 or 500 μCi, BMC on day 7 or 14, FIG. 2), the BM engraftment entry is “BM engraftment in all recipient animals analyzed”. The “chimerism in recipients of allogeneic BMC” value was “transient chimerism” in data set [2] (absence of co-stimulatory blockade, 20×10^6 or 100×10^6 BMC, FIGS. 4-5) and “long-lasting hemolymphopoietic chimerism” in data set [2] (in the presence of costimulatory blockade (anti-CD154 mAb)). In data set [2] (combination of BMC-Tx, 153Sm-EDTMP and anti-CD154 mAb, FIGS. 7 and 8), the “multilineage chimerism (B cells, NK, granulocytes)” value is on record as “long-term, stable multilineage chimerism”. For the same molecule, the “chimerism across a full allogeneic barrier” value in data set [2] (single administration prior to infusion of allogeneic bone marrow-derived cells) was “high levels of stable long-term chimerism”. The “effectiveness of lower dose 150 μCi versus higher dose 500 μCi” value in data set [2] (with BMC-Tx and MR-1 co-stimulatory blockade) is “as effective as the higher dose”. Also, the “influence of 153Sm dose (150 vs 500 μCi) and timing of BMC-Tx on chimerism” value in data set [2] (with costimulatory blockade) is given as “do not grossly influence the results”. The “third party (C3H/J) skin graft outcome” value in data set [3] (20×10^6 BMC, 153Sm-EDTMP and anti-CD154 mAb) is reported as “rejected within the same time frame as were donor-specific grafts placed on naïve recipients”; in data set [3] (100×10^6 BMC, 153Sm-EDTMP and anti-CD154 mAb), “rejected within the same time frame as were donor-specific grafts placed on naïve recipients”. The “tolerance to donor-specific skin grafts” value in data set [3] (20×10^6 BMC, 153Sm-EDTMP and anti-CD154 mAb, FIG. 9) is listed as “tolerance to donor-specific skin grafts is obtained”. Further, the “enhancing effect of 153Sm administration on graft survival” value in data set [3] (100×10^6 BMC, anti-CD154 mAb, FIG. 10) was “lost”. For the same molecule, the “time donor-derived skin grafts were kept” value in data set [3] (a large percent of animals, followed up to 31 weeks post bone marrow transplantation, with anti-CD154 mAb) is on record as over 150 days.
